# Source: ChEMBL document CHEMBL1909046, “DrugMatrix in vitro pharmacology data”
# What was measured:
# [1] = biological target: Beta-1 adrenergic receptor (Homo sapiens, UniProt P08588); test: DRUGMATRIX: Adrenergic beta1 radioligand binding (ligand: [125I] Cyanopindolol); assay type: cell membranes, CHO-K1, Membrane; conditions: cho-k1; Not Active = under 50% inhibition at 10 µM
# [2] = biological target: T1, Thromboxane-A synthase (Homo sapiens, UniProt P24557); test: biochemical; assay type: tissue-based, Platelet;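 also: enzyme inhibition assay with PGH2 supplied as substrate; in other assays of this panel Not Active means under 50% inhibition at 10 µM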
# T1 sequence (P24557 whole entry): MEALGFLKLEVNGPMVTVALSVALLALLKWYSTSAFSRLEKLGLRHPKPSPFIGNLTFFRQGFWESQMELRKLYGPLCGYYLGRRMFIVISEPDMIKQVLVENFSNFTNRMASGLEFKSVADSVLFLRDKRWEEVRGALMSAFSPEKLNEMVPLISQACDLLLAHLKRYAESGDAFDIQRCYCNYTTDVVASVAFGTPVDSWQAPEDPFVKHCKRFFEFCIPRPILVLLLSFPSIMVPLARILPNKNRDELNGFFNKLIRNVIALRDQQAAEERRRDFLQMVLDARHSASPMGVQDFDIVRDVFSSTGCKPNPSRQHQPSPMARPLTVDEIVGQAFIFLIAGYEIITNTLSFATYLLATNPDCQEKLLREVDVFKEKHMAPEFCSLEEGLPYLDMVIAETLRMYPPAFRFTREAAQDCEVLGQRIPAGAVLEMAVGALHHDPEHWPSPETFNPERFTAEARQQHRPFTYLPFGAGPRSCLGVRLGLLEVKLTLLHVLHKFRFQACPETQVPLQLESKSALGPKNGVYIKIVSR
# [3] = biological target: Cannabinoid receptor 1 (Homo sapiens, UniProt P21554); assay type: cell membranes, Membrane; conditions: chem-1; also: in other assays of this panel Not Active means under 50% inhibition at 10 µM
# [4] = biological target: T2, Muscarinic acetylcholine receptor M5 (Homo sapiens, UniProt P08912); assay type: cell membranes, Membrane; conditions: cho-k1; also: in other assays of this panel Not Active means under 50% inhibition at 10 µM
# T2 sequence (P08912 whole entry): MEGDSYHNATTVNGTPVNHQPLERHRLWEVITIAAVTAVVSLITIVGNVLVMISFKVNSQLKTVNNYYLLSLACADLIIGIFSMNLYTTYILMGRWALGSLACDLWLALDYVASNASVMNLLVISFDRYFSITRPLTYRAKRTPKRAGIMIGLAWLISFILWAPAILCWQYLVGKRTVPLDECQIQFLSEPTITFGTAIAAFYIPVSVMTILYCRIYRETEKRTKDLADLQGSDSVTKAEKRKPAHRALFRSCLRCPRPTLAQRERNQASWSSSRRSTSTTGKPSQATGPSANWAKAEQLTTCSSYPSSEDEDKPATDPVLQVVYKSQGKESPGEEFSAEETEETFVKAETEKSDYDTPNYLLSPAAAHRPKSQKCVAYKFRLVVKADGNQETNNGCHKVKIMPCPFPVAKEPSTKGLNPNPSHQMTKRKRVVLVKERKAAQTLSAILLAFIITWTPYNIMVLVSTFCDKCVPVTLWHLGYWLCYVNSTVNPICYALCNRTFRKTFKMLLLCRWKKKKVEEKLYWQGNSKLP
# [5] = biological target: T3, Progesterone receptor (Bos taurus, UniProt Q690N0); test: DRUGMATRIX: Progesterone radioligand binding (ligand: [3H] R-5020); assay type: tissue-based, Uterus; conditions: Not Active = under 50% inhibition at 10 µM
# T3 sequence (Q690N0 whole entry): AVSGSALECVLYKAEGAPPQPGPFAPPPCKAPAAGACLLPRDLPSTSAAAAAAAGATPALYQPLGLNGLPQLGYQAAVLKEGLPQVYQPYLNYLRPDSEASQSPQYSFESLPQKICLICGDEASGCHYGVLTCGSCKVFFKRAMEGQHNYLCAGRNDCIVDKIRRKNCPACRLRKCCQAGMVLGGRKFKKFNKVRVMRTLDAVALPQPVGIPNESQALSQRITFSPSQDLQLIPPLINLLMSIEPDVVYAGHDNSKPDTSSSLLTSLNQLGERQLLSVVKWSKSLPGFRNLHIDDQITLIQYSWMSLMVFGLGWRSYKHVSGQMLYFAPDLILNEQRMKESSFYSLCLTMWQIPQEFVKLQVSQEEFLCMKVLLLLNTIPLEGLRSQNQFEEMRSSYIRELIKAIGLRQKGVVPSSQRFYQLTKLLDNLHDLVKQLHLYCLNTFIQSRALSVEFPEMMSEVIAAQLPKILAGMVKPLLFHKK
# [6] = biological target: Mitogen-activated protein kinase 14 (Homo sapiens, UniProt Q16539); parameters: species or system Escherichia coli;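 also: inhibition of p38alpha enzyme activity in a biochemical kinase assay, with myelin basic protein serving as substrate; in other assays of this panel Not Active means under 50% inhibition at 10 µM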
# [7] = biological target: Epidermal growth factor receptor (Homo sapiens, UniProt P00533); test: DRUGMATRIX: Protein Tyrosine Kinase, EGF Receptor enzyme inhibition (substrate: Poly(Glu:Tyr)); assay type: cell-based, Insect cells; conditions: Not Active = under 50% inhibition at 10 µM
# Chain of Cannabinoid receptor 1 (P21554 whole entry): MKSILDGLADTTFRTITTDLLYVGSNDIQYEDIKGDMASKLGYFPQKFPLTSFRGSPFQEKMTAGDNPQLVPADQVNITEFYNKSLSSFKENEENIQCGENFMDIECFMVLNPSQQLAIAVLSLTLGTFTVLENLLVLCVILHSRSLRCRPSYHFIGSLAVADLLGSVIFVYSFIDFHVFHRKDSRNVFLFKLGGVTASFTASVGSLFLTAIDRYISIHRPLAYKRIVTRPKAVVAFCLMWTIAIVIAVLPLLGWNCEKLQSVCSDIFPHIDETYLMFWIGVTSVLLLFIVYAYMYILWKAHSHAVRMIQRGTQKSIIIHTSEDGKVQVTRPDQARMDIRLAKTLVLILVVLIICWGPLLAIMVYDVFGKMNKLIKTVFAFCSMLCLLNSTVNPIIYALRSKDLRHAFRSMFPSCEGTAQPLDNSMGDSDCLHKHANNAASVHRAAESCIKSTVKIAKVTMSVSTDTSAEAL
# Chain of Mitogen-activated protein kinase 14 (Q16539 whole entry): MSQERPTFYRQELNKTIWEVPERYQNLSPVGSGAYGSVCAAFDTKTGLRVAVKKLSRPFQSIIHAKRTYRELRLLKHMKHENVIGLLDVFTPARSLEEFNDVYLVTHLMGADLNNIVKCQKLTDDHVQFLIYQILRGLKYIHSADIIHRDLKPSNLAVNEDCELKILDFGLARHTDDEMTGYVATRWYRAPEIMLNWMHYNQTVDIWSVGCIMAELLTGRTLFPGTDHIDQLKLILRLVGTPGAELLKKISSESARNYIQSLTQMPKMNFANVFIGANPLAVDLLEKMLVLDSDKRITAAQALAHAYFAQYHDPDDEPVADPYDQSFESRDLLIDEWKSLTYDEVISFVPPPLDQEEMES
# Chain of Beta-1 adrenergic receptor (P08588 whole entry): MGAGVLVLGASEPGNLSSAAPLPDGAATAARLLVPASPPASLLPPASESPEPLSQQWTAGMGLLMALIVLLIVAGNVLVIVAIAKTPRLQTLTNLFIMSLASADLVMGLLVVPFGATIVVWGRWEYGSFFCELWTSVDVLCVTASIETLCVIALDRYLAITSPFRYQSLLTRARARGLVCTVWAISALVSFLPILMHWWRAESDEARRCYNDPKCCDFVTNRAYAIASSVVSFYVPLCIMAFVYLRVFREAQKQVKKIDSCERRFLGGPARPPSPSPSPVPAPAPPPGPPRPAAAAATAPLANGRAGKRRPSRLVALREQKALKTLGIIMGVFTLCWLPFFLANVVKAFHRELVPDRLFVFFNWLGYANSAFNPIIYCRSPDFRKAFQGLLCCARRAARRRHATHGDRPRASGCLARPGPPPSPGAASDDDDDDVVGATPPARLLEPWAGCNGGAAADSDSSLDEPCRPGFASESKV
Compound,IC50 [1],IC50 ([2]; platelet),IC50 [3],IC50 [4],IC50 [5],IC50 [6],IC50 ([7]; insect cells),IC50 ([2]; read-out: IC50) [nM],IC50 ([6]; read-out: IC50) [nM],IC50 ([7]; read-out: IC50) [nM],Ki [1],Ki ([2]; platelet),Ki [3],Ki [4],Ki [5],Ki [6],Ki ([7]; insect cells),IC50 ([5]; read-out: IC50) [nM],Ki ([5]; read-out: Ki) [nM]
O=c1n(CCCN2CCN(c3cccc(Cl)c3)CC2)nc2ccccn12 [TRAZODONE],Not Active,Not Active,Not Active,Not Active,Not Active,Not Active,Not Active,,,,,,,,,,,,
O=C(O)C(Cl)(Cl)Cl [TRICHLOROACETIC ACID],Not Active,Not Active,Not Active,Not Active,Not Active,Not Active,Not Active,,,,,,,,,,,,
CNS(=O)(=O)Cc1ccc2[nH]cc(CCN(C)C)c2c1,Not Active,Not Active,Not Active,Not Active,Not Active,Not Active,Not Active,,,,,,,,,,,,
CCCc1nn(C)c2c(=O)[nH]c(-c3cc(S(=O)(=O)N4CCN(C)CC4)ccc3OCC)nc12,Not Active,Not Active,Not Active,Not Active,Not Active,Not Active,Not Active,,,,,,,,,,,,
Nc1nc2c(c(=O)[nH]1)N(C=O)C(CNc1ccc(C(=O)N[C@@H](CCC(=O)O)C(=O)O)cc1)CN2 (some centres not stated) [LEUCOVORIN],Not Active,Not Active,Not Active,Not Active,Not Active,Not Active,Not Active,,,,,,,,,,,,
CCS(=O)(=O)CCn1c([N+](=O)[O-])cnc1C [TINIDAZOLE],Not Active,Not Active,Not Active,Not Active,Not Active,Not Active,Not Active,,,,,,,,,,,,
C#CCN(C)[C@H](C)Cc1ccccc1 [SELEGILINE],Not Active,Not Active,Not Active,Not Active,Not Active,Not Active,Not Active,,,,,,,,,,,,
COc1cc(C(=O)NS(=O)(=O)c2ccccc2C)ccc1Cc1cn(C)c2ccc(NC(=O)OC3CCCC3)cc12 [ZAFIRLUKAST],Not Active,,Not Active,Not Active,Not Active,,,3810,353,5750,,,,,,,,,
STANNOUS FLUORIDE,Not Active,Not Active,Not Active,Not Active,Not Active,Not Active,Not Active,,,,Not Active,Not Active,Not Active,Not Active,Not Active,Not Active,Not Active,,
C[C@]12CC[C@H]3[C@@H](CCC4=CC(=O)CC[C@@]43C)[C@@H]1CC[C@@H]2O [TESTOSTERONE],Not Active,Not Active,Not Active,Not Active,,Not Active,Not Active,,,,,,,,,,,1930,252
CN1C2CCCC1CC(NC(=O)c1nn(C)c3ccccc13)C2 (configuration not stated) [GRANISETRON],Not Active,Not Active,Not Active,Not Active,Not Active,Not Active,Not Active,,,,,,,,,,,,
COc1ccc(/C=C/C(=O)Nc2ccccc2C(=O)O)cc1OC,Not Active,Not Active,Not Active,Not Active,Not Active,Not Active,Not Active,,,,,,,,,,,,
